From US20110144331A1, “Cinnoline Compounds for the Treatment of Anxiety, Cognitive and Mood Disorders” (AstraZeneca AB, priority 2005, published 2011)

Legend:
[1] = molecular target: T1, human α1β2γ2 GABAA receptor (Homo sapiens, UniProt P14867+P18507); assay: Two-electrode voltage-clamp in Xenopus oocytes, potentiation of GABA EC10 current, GABAA1; type: cell-based; settings: percentage potentiation of GABA EC10 current divided by that of diazepam control
T1 construct: expressed in transfected cells; host or cells: Xenopus laevis oocytes injected with capped cRNA
T1 sequence (P14867 28-456): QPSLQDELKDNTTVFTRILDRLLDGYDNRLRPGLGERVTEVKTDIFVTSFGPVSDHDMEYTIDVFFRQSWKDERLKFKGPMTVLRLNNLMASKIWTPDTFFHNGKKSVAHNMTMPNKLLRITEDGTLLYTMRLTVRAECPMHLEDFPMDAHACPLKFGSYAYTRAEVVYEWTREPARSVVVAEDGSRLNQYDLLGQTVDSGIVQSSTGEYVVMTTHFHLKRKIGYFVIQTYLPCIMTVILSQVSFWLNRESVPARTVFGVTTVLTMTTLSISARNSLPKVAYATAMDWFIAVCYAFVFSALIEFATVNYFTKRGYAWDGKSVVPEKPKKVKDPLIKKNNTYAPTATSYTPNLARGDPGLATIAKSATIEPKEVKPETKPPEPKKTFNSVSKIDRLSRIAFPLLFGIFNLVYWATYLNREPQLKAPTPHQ
T1 sequence (P47870 25-512 partner limits assumed): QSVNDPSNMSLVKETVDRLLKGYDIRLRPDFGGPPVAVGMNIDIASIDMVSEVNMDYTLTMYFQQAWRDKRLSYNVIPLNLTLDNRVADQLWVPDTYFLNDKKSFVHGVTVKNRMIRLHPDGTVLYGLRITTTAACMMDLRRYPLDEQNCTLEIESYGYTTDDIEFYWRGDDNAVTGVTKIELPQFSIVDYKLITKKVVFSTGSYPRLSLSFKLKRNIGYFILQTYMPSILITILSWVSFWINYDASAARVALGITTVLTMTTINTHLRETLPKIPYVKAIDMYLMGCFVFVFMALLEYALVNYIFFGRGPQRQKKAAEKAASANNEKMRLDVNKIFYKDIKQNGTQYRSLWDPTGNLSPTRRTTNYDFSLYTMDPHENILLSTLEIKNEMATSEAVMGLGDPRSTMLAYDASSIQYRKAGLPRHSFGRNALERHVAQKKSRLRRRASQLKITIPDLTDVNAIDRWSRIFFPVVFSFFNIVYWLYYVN
T1 sequence (P18507 40-475): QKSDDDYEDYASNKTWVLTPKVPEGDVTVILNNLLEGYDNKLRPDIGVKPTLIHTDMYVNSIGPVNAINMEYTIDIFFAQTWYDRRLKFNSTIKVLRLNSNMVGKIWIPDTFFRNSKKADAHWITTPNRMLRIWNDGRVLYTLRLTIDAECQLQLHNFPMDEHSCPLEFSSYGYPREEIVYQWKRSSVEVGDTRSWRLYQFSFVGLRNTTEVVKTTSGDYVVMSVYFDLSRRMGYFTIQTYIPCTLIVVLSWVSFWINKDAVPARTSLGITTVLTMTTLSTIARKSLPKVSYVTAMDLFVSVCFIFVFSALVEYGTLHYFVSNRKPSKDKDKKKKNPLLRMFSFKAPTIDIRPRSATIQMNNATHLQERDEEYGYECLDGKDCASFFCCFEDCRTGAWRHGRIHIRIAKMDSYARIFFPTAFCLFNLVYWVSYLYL
Procedure: (§1) GABAA receptors were heterologously expressed in Xenopus oocytes by injecting cRNA corresponding to human α1, α2, α3, α5, β2, β3 and γ2 subunits of the GABAA receptor genes. The specific subunit combinations (subtypes) were as follows: α1β2γ2, α2β3γ2, α3β3γ2, and α5β3γ2. The EC10 of GABA was approximated for each cell. Stability of GABA-mediated (EC10) current was established. Modulatory effect of test compound was determined and compared across subtypes. […] Thus, the assay can characterize modulatory effects and determine subtype selectivity of test compounds on major subtypes of GABAA receptors.
(§2) Surgically removed ovarian lobes were teased out in OR2 solution (82 NaCl, 2.5 KCl, 5 HEPES, 1.5 NaH2PO4, 1 MgCl2, 0.1 EDTA, in mM, pH 7.4). The oocytes were defolliculated by incubation in 25 mL OR2 containing 0.2% collagenase 1A (SIGMA) two times for about 60 minutes on a platform shaker and stored in Leibovitz's L-15 medium. Oocytes were injected the following day in 0.5× Leibovitz's L-15 medium containing […] gentamycin, 10 units/ml penicillin, and […] streptomycin.
(§3) Capped cRNAs from the linearized vectors containing human α1, β2 and γ2 subunits of the GABAA receptor genes were mixed in ratio of 1:1:30. Oocytes were injected with 25-50 nL of mixed RNA with an appx molar ratio for α1, β2, and γ2 as 1:1:10. Oocyte recordings were done 2-10 days after injection. The same methods apply to subtypes derived from α2β2γ2, α3β3γ2, and α5β3γ2, except for 1:1:1 ratio was used for α, β, and γ subunits.
(§4) All measurements were done in a medium containing ND-96 (96 NaCl, 2 KCl, 1.8 CaCl2.2H2O, 1 MgCl2.6H2O, 5 HEPES, in mM, pH 7.5). Two-electrode voltage-clamp recording was carried out using OpusXpress amplifier (Axon Instruments, Foster City, Calif.), which allows simultaneous recording from 8 oocytes. Oocytes were impaled with two electrodes of 1-2 MΩ tip resistance when filled with 3M KCl. Recordings were begun when membrane potential became stable at potentials negative to −50-−60 mV. Membrane potential was held at −60 mV. […] The concentration of GABA corresponded to the EC10 value calculated for each oocyte. The modulator pulses started 30 s before the GABA pulse so as to allow preincubation with the modulator. A set of 3 pulses with just GABA without modulator was given prior to the modulator-containing pulses to define the baseline GABA response. Two oocytes per each experiment were dedicated to observe the effect of diazepam on GABA response to ensure the presence of γ2 subunit in the GABAA pentameric complex, which imparts diazepam sensitivity to the complex.
(§5) Current amplitude (i) was measured from baseline to peak using Clampfit (Axon Inst., Foster City, Calif.). Potentiation was calculated as percent change from the baseline GABA current flux 100×(imod/icontrol)−1) where imod=current mediated by modulator+GABA and icontrol=current mediated by GABA alone. […] Similarly, a value of −50% potentiation means the presence of modulator caused a 50% decrease in the control current. Various other data shown here were fitted and plotted using GraphPad Prism (GraphPad Software, Inc. San Diego, Calif.). The percentage potentiation was converted to relative potentiation by dividing it with percentage potentiation value obtained from the same assay with diazepam as a control.

[2] = molecular target: T2, human α2β3γ2 GABAA receptor (Homo sapiens, UniProt P18507+P47869); assay: Two-electrode voltage-clamp in Xenopus oocytes, potentiation of GABA EC10 current, GABAA2; type: cell-based; settings: percentage potentiation of GABA EC10 current divided by that of diazepam control
T2 construct: expressed in transfected cells; host or cells: Xenopus laevis oocytes injected with capped cRNA (α:β:γ 1:1:1)
T2 sequence (P47869 29-451): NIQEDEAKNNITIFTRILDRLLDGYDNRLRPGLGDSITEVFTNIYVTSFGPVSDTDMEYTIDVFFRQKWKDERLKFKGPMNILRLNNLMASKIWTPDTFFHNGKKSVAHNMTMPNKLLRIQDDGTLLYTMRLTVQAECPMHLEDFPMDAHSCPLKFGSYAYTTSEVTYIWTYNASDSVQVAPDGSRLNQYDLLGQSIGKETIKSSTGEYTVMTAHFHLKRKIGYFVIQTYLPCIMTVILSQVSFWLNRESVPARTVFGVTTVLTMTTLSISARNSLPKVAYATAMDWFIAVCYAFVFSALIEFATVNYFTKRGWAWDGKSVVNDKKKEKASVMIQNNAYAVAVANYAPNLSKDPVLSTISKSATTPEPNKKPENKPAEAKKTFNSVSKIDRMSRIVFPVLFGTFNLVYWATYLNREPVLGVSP
T2 sequence (P18507 40-475): as the sequence (P18507 40-475) above
T2 sequence (P28472 26-473 partner): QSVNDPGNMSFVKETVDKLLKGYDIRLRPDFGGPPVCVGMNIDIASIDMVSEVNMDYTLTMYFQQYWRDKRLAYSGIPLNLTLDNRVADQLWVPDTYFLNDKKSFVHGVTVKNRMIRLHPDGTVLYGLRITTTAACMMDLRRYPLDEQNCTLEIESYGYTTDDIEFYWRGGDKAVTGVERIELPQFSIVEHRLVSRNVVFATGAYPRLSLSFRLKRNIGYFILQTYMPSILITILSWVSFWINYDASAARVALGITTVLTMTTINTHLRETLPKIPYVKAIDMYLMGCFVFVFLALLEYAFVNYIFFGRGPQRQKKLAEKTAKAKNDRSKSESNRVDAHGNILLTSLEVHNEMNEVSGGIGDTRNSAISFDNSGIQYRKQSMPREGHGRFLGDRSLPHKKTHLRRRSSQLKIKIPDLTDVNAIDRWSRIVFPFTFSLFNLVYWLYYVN
Procedure: as §1, §2, §3, §4, §5

| SMILES | Relative Potentiation for GABAA1 [1] | Relative Potentiation for GABAA2 [2] |
| --- | --- | --- |
| CCCNC(=O)c1nnc2c(-c3cc(Cl)ccc3OC)c(F)ccc2c1N | 0.25 |  |
| CCCNC(=O)c1nnc2c(-c3cc(OC)cc(OC)c3)c(F)ccc2c1N | 0.38 |  |
| CCCNC(=O)c1nnc2c(-c3ccc(OC)c(OC)c3OC)c(F)ccc2c1N | 0.51 |  |
| CCCNC(=O)c1nnc2c(-c3ccc(OC)cc3C(F)(F)F)c(F)ccc2c1N | 0.28 |  |
| CCCNC(=O)c1nnc2c(-c3ccc(F)cc3OCC)c(F)ccc2c1N | 0.27 |  |
| CCCNC(=O)c1nnc2c(-c3cc(Cl)ccc3Cl)c(F)ccc2c1N | 0.21 |  |
| CCCNC(=O)c1nnc2c(-c3cc(C(F)(F)F)ccc3F)cccc2c1N | 0.41 | 0.59 |
| CCCNC(=O)c1nnc2c(-c3cncc(C(=O)N4CCC4)c3)cccc2c1N | −0.11 | −0.033 |
| CCCNC(=O)c1nnc2c(-c3ccc(OC)cc3C(F)(F)F)cccc2c1N | 0.12 | 0.16 |
| CCCNC(=O)c1nnc2c(-c3ccc(OC)cc3OC)cccc2c1N | 0.18 | 0.15 |
| CCCNC(=O)c1nnc2c(-c3cccnc3)cccc2c1N | −0.11 | 0.054 |
| CCCNC(=O)c1nnc2c(-c3cnc(OC)nc3OC)c(Cl)ccc2c1N | 0.19 | 0.29 |
| CCCNC(=O)c1nnc2c(-c3ccc(OC)c(F)c3)c(F)ccc2c1N | 0.1 | 0.16 |
| CCCNC(=O)c1nnc2c(-c3cc(C)ccc3OC)c(Cl)ccc2c1N | 0.47 |  |
| CCCCNC(=O)c1nnc2c(-c3cnc(OC)nc3OC)cccc2c1N | 0.16 | 0.45 |
| CCCNC(=O)c1nnc2c(-c3cccc(OC)c3F)cccc2c1N | 0.045 | 0.26 |

| SMILES | Relative Potentiation for GABAA1 [1] | Relative Potentiation for GABAA2 [2] |
| --- | --- | --- |
| CCCNC(=O)c1nnc2c(-c3cccc(C(=O)N4CCC4)c3)cccc2c1N | 0.19 | −0.0075 |
| CCCNC(=O)c1nnc2c(-c3ccc(OC)c(OC)c3)cccc2c1N | 0.33 | 0.28 |
| CCCNC(=O)c1nnc2c(-c3ccc(C)nc3)cccc2c1N | −0.16 | 0.14 |
| CCCNC(=O)c1nnc2c(-c3ccc(OC)cc3F)cccc2c1N | 0 | 0.12 |
| CCCNC(=O)c1nnc2c(-c3cncc(OC)c3)cccc2c1N | 0.07 | 0.34 |
| CCCNC(=O)c1nnc2c(-c3cccc(OC)c3)cccc2c1N | 0.13 | 0.22 |
| CCCNC(=O)c1nnc2c(-c3ccc(F)cc3OC)cccc2c1N | 0.12 | 0.38 |
| CCNC(=O)c1nnc2c(-c3cnccc3OC)cccc2c1N | −0.02 | 0.28 |
| CCCNC(=O)c1nnc2c(-c3cc(OC)cc(OC)c3)cccc2c1N | 0.28 | 0.57 |
| CCCNC(=O)c1nnc2c(-c3ccc(OC)cc3OC)c(Cl)ccc2c1N | 0.87 |  |
| CCCNC(=O)c1nnc2c(-c3nc(Br)ccc3OC)cccc2c1N | 0.34 |  |
| CCNC(=O)c1nnc2c(-c3cc(C)ccc3OC)cccc2c1N | 0.23 |  |
| CCCCNC(=O)c1nnc2c(-c3cc(C)ccc3OC)cccc2c1N | 0.32 |  |
| CCCNC(=O)c1nnc2c(-c3cc(OC)ccc3OC)c(Cl)ccc2c1N | 0.32 |  |
| CCCNC(=O)c1nnc2c(-c3cc(Cl)cc(Cl)c3)c(F)ccc2c1N | 0.36 |  |
| CCCNC(=O)c1nnc2c(-c3cc(C(=O)N4CCC4)ccc3OC)cccc2c1N | 0.48 |  |
